molecular target: endogenous, cell-bound CD73 on SK-MEL-28 cells (Homo sapiens (Human), UniProt P21589); assay: Inhibition of endogenous, cell-bound CD73 enzyme activity in SK-MEL-28 cells (Malachite Green); assay type: cell-based; settings: 100 μM AMP, 30 minutes at room temperature
Protocol: The day before the experiment, 5000 cells were plated per well in a 96-well plate. Cells were washed twice with […] reaction buffer (20 mM HEPES, pH 7.4, 125 mM NaCl, 1 mM KCl, 2 mM MgCl2, 10 mM glucose) to remove residual inorganic phosphate. After washing, assays contained serial dilutions of test compounds and 100 μM of AMP in a total volume of 200 μL reaction buffer, with a final DMSO concentration≤0.5%. After 30 minutes at room temperature, supernatant was removed from the cells. […] The concentration of inorganic phosphate was determined using a phosphate standard curve to determine IC50.

endogenous, cell-bound CD73 on SK-MEL-28 cells, sequence (P21589 27-574): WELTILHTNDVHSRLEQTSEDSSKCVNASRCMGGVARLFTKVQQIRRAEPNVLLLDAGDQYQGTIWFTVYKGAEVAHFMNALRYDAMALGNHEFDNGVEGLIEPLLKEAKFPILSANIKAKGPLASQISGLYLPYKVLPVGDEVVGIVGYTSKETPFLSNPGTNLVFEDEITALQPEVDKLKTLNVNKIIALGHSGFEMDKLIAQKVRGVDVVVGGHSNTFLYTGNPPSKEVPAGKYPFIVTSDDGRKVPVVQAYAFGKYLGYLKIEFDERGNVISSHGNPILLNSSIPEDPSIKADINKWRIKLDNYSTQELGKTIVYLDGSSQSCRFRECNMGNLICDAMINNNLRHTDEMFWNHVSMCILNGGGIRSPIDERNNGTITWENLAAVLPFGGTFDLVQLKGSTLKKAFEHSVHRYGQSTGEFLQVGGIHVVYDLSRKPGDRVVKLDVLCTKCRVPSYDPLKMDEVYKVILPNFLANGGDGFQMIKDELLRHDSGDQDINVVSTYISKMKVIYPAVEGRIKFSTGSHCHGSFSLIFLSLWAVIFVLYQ

| SMILES | IC50 [µM] |
| --- | --- |
| Nc1nc(Cl)nc2c1ncn2[C@@H]1O[C@H](COC(Cc2ccc(-c3nnn[nH]3)cc2)(C(=O)O)C(=O)O)[C@@H](O)[C@@H]1F [compound 54, 2-(4-(1H-tetrazol-5-yl)benzyl)-2-(((2R,3R,4S,5R)-5-(6-amino-2-chloro-9H-purin-9-yl)-4-fluoro-3-hydroxytetrahydro-furan-2-yl)methoxy)malonic acid] | 0.973 |
| Nc1nc(Cl)nc2c1ncn2[C@@H]1O[C@H](COC(Cc2ccccc2)(C(=O)O)C(=O)O)[C@@H](O)[C@H]1N [compound 55, 2-(((2R,3S,4R,5R)-4-amino-5-(6-amino-2-chloro-9H-purin-9-yl)-3-hydroxytetrahydrofuran-2-yl)methoxy)-2-benzylmalonic acid] | > 50 |
| Nc1nc(Cl)nc2c1ncn2[C@@H]1O[C@H](COC(Cc2cccc(O)c2)(C(=O)O)C(=O)O)[C@@H](O)[C@@H]1F [compound 56, 2-(((2R,3R,4S,5R)-5-(6-amino-2-chloro-9H-purin-9-yl)-4-fluoro-3-hydroxytetrahydrofuran-2-yl)methoxy)-2-(3-hydroxybenzyl)malonic acid] | 1.25 |
| Nc1nc(Cl)nc2c1ncn2[C@@H]1O[C@H](COC(Cc2ccc(C(=O)O)c(F)c2)(C(=O)O)C(=O)O)[C@@H](O)[C@@H]1F [compound 58, 2-(((2R,3R,4S,5R)-5-(6-amino-2-chloro-9H-purin-9-yl)-4-fluoro-3-hydroxytetrahydro-furan-2-yl)methoxy)-2-(4-carboxy-3-fluorobenzyl)malonic acid] | 0.853 |
| Nc1nc(Cl)nc2c1ncn2[C@@H]1O[C@H](COC(Cc2ccc(C(F)(F)F)o2)(C(=O)O)C(=O)O)[C@@H](O)[C@@H]1F [compound 59, 2-(((2R,3R,4S,5R)-5-(6-amino-2-chloro-9H-purin-9-yl)-4-fluoro-3-hydroxytetrahydro-furan-2-yl)methoxy)-2-((5-(trifluoromethyl)-furan-2-yl)methyl)malonic acid] | 6.98 |
| Nc1nc(Cl)nc2c1ncn2[C@@H]1O[C@H](COC(Cc2ccc(C(F)(F)F)c(F)c2)(C(=O)O)C(=O)O)[C@@H](O)[C@@H]1F [compound 60, 2-(((2R,3R,4S,5R)-5-(6-amino-2-chloro-9H-purin-9-yl)-4-fluoro-3-hydroxytetrahydro-furan-2-yl)methoxy)-2-(3-fluoro-4-(trifluoromethyl)benzyl)malonic acid] | 0.512 |
| Nc1nc(Cl)nc2c1ncn2[C@@H]1O[C@H](COC(Cc2cc(-c3ccccc3)no2)(C(=O)O)C(=O)O)[C@@H](O)[C@@H]1F [compound 61, 2-(((2R,3R,4S,5R)-5-(6-amino-2-chloro-9H-purin-9-yl)-4-fluoro-3-hydroxytetrahydrofuran-2-yl)methoxy)-2-((3-phenylisoxazol-5-yl)methyl)malonic acid] | 6.97 |
| Nc1nc(Cl)nc2c1ncn2[C@@H]1O[C@H](COC(Cc2cnn(Cc3ccccc3)c2)(C(=O)O)C(=O)O)[C@@H](O)[C@@H]1F [compound 63, 2-(((2R,3R,4S,5R)-5-(6-amino-2-chloro-9H-purin-9-yl)-4-fluoro-3-hydroxytetrahydro-furan-2-yl)methoxy)-2-((1-benzyl-1H-pyrazol-4-yl)methyl)malonic acid] | 2.01 |
| Nc1nc(Cl)nc2c1ncn2[C@@H]1O[C@H](COC(Cc2cn[nH]c2)(C(=O)O)C(=O)O)[C@@H](O)[C@@H]1F [compound 64, 2-((1H-pyrazol-4-yl)methyl)-2-(((2R,3R,4S,5R)-5-(6-amino-2-chloro-9H-purin-9-yl)-4-fluoro-3-hydroxytetrahydrofuran-2-yl)methoxy)malonic acid] | 0.588 |
| Nc1nc(Cl)nc2c1ncn2[C@@H]1O[C@H](COC(Cc2ccc(OCc3ccccc3)cc2)(C(=O)O)C(=O)O)[C@@H](O)[C@@H]1F [compound 65, 2-(((2R,3R,4S,5R)-5-(6-amino-2-chloro-9H-purin-9-yl)-4-fluoro-3-hydroxytetrahydrofuran-2-yl)methoxy)-2-(4-(benzyloxy)benzyl)malonic acid] | 0.196 |
| Nc1nc(Cl)nc2c1ncn2[C@@H]1O[C@H](COC(Cc2ccc(O)cc2)(C(=O)O)C(=O)O)[C@@H](O)[C@@H]1F [compound 66, 2-(((2R,3R,4S,5R)-5-(6-amino-2-chloro-9H-purin-9-yl)-4-fluoro-3-hydroxytetrahydrofuran-2-yl)methoxy)-2-(4-hydroxybenzyl)malonic acid] | 0.426 |
| Nc1nc(Cl)nc2c1ncn2[C@@H]1O[C@H](COC(Cc2cnc(C(=O)O)s2)(C(=O)O)C(=O)O)[C@@H](O)[C@@H]1F [compound 67, 2-(((2R,3R,4S,5R)-5-(6-amino-2-chloro-9H-purin-9-yl)-4-fluoro-3-hydroxytetrahydro-furan-2-yl)methoxy)-2-((2-carboxythiazol-5-yl)methyl)malonic acid] | 1.31 |
| Nc1nc(Cl)nc2c1ncn2[C@@H]1O[C@H](COC(Cc2csc(C(=O)O)n2)(C(=O)O)C(=O)O)[C@@H](O)[C@@H]1F [compound 68, 2-(((2R,3R,4S,5R)-5-(6-amino-2-chloro-9H-purin-9-yl)-4-fluoro-3-hydroxytetrahydro-furan-2-yl)methoxy)-2-((2-carboxythiazol-4-yl)methyl)malonic acid] | 0.924 |
| N#Cc1ccc(CC(OC[C@H]2O[C@@H](n3cnc4c(N)nc(Cl)nc43)[C@@H](F)[C@@H]2O)(C(=O)O)C(=O)O)cc1F [compound 75, 2-(((2R,3R,4S,5R)-5-(6-amino-2-chloro-9H-purin-9-yl)-4-fluoro-3-hydroxytetrahydrofuran-2-yl)methoxy)-2-(4-cyano-3-fluorobenzyl)malonic acid] | 0.99 |
| Nc1nc(Cl)nc2c1ncn2[C@@H]1O[C@H](COC(Cc2csc(C(=O)O)c2)(C(=O)O)C(=O)O)[C@@H](O)[C@@H]1F [compound 76, 2-(((2R,3R,4S,5R)-5-(6-amino-2-chloro-9H-purin-9-yl)-4-fluoro-3-hydroxytetrahydro-furan-2-yl)methoxy)-2-((5-carboxythiophen-3-yl)methyl)malonic acid] | 0.305 |
| Nc1nc(Cl)nc2c1ncn2[C@@H]1O[C@H](COC(Cc2ccc(C(=O)O)s2)(C(=O)O)C(=O)O)[C@@H](O)[C@@H]1F [compound 77, 2-(((2R,3R,4S,5R)-5-(6-amino-2-chloro-9H-purin-9-yl)-4-fluoro-3-hydroxytetrahydro-furan-2-yl)methoxy)-2-((5-carboxythiophen-2-yl)methyl)malonic acid] | 1.33 |
| Nc1nc(Cl)nc2c1ncn2[C@@H]1O[C@H](COC(Cc2ccc(CC(=O)O)cc2)(C(=O)O)C(=O)O)[C@@H](O)[C@@H]1F [compound 78, 2-(((2R,3R,4S,5R)-5-(6-amino-2-chloro-9H-purin-9-yl)-4-fluoro-3-hydroxytetrahydrofuran-2-yl)methoxy)-2-(4-(carboxymethyl)benzyl)malonic acid] | 0.234 |
| Nc1nc(Cl)nc2c1ncn2[C@@H]1O[C@H](COC(Cc2ccc(-c3ccccc3)cc2)(C(=O)O)C(=O)O)[C@@H](O)[C@@H]1F [compound 79, 2-([1,1′-biphenyl]-4-ylmethyl)-2-(((2R,3R,4S,5R)-5-(6-amino-2-chloro-9H-purin-9-yl)-4-fluoro-3-hydroxytetrahydro-furan-2-yl)methoxy)malonic acid] | 0.162 |
| Nc1nc(Cl)nc2c1ncn2[C@@H]1O[C@H](COC(Cc2ccc(Cl)cc2F)(C(=O)O)C(=O)O)[C@@H](O)[C@@H]1F [compound 80, 2-(((2R,3R,4S,5R)-5-(6-amino-2-chloro-9H-purin-9-yl)-4-fluoro-3-hydroxytetrahydrofuran-2-yl)methoxy)-2-(4-chloro-2-fluorobenzyl)malonic acid] | 0.177 |
| Nc1nc(Cl)nc2c1ncn2[C@@H]1O[C@H](COC(Cc2cc(C(=O)O)no2)(C(=O)O)C(=O)O)[C@@H](O)[C@@H]1F [compound 83, 2-(((2R,3R,4S,5R)-5-(6-amino-2-chloro-9H-purin-9-yl)-4-fluoro-3-hydroxytetrahydrofuran-2-yl)methoxy)-2-((3-carboxyisoxazol-5-yl)methyl)malonic acid] | 5.2 |
| COc1ccc(CC(OC[C@H]2O[C@@H](n3cnc4c(N)nc(Cl)nc43)[C@@H](F)[C@@H]2O)(C(=O)O)C(=O)O)cc1Cl [compound 85, 2-(((2R,3R,4S,5R)-5-(6-amino-2-chloro-9H-purin-9-yl)-4-fluoro-3-hydroxytetrahydrofuran-2-yl)methoxy)-2-(3-chloro-4-methoxybenzyl)malonic acid] | 1.37 |
| Nc1nc(Cl)nc2c1ncn2[C@@H]1O[C@H](COC(Cc2ccc(S(N)(=O)=O)cc2)(C(=O)O)C(=O)O)[C@@H](O)[C@@H]1F [compound 86, 2-(((2R,3R,4S,5R)-5-(6-amino-2-chloro-9H-purin-9-yl)-4-fluoro-3-hydroxytetrahydrofuran-2-yl)methoxy)-2-(4-sulfamoylbenzyl)malonic acid] | 0.626 |
| Nc1nc(Cl)nc2c1ncn2[C@@H]1O[C@H](COC(Cc2ccc(C(=O)NCCC(=O)O)cc2)(C(=O)O)C(=O)O)[C@@H](O)[C@@H]1F [compound 87, 2-(((2R,3R,4S,5R)-5-(6-amino-2-chloro-9H-purin-9-yl)-4-fluoro-3-hydroxytetrahydro-furan-2-yl)methoxy)-2-(4-((2-carboxy-ethyl)carbamoyl)benzyl)malonic acid] | 0.549 |
| Nc1nc(Cl)nc2c1ncn2[C@@H]1O[C@H](COC(Cc2ccc3oc(C(=O)O)cc3c2)(C(=O)O)C(=O)O)[C@@H](O)[C@@H]1F [compound 88, 2-(((2R,3R,4S,5R)-5-(6-amino-2-chloro-9H-purin-9-yl)-4-fluoro-3-hydroxytetrahydro-furan-2-yl)methoxy)-2-((2-carboxybenzofuran-5-yl)methyl)malonic acid] | 0.443 |

From US10472364B2 (Calithera Biosciences, Inc., priority 2016, dated 2019)
